Assay results as given in patent publication US20090285796A1, “MUTANT JAK3 KINASE IN HUMAN LEUKEMIA” (CELL SIGNALING TECHNOLOGY, INC., priority 2006, published 2009).

What was measured:
[1] = system: human AML cell line (CMK); settings: CMK cells expressing mutant (A572V) JAK3
Excerpt: (§1) CP-690,550, which specifically binds to and blocks the ATP-binding site of JAK3 kinase, thereby preventing phosphorylation and activation of this enzyme, is commercially available and some of its properties have been described. See, e.g. Borne et al., Tranplantation 80 (12): 1756-1764 (2005); Paniagua et al., Tranplantation 80 (9): 1283-1292 (2005).

[2] = system: control cells that do not express the mutant JAK3 protein; settings: control cells not expressing mutant JAK3
Excerpt: as §1

CMK cells [3] = assay: Apoptosis by annexin V staining with JAK I; type: cell-based, human; settings: increasing concentrations
Protocol: (§2) JAK I (Calbiochem, San Diego, Calif.) is a potent inhibitor of the JAK family of kinases, including JAK3. To confirm that JAK3 is driving the proliferation of CMK cells, the effect of JAK I on the growth and/or viability of CMK cells was examined. CMK and K562 cells (as a control) were treated for seventy hours with increasing doses of JAK I inhibitor up to 2 micrograms/ml. The number of viable cells was determined with the CellTiter 96 AQueous One solution cell proliferation assay (Promega). Apoptosis was measured with a fluorescent stain measuring annexin V.

CMK cells [4] = assay: CellTiter 96 AQueous One cell proliferation assay with JAK I; type: cell-based, human; settings: seventy hours, increasing doses up to 2 micrograms/ml
Protocol: as §2

STAT5 = assay: Western blot of STAT5 phosphorylation after JAK I; type: cell-based, human; settings: CMK cells, range of inhibitor concentrations
Protocol: AML-193, GDM-1, CMK, K562 and Ba/F3 cells were obtained from the German National Resource Centre for Biological Material (DSMZ). GF-D8 cells were generously provided by Dr. Orietta Spinelli, Laboratorio Paolo Belli, Bergamo, Italy. All cell lines were maintained in RPMI 1640 supplemented with 10% FCS, 1 unit/mL penicillin G, and 1 μg/mL streptomycin at 37° C. and 5% CO2. Western blotting was carried out according to standard methods, following the Western Blotting Protocol (Cell Signaling Technology, Inc., 2005-2006 Catalogue).
To further confirm the effect of the JAK I on the CMK cell line, Western blot analysis (as described above) was performed following exposure to a range of inhibitor concentrations, and the activity of the JAK3 downstream target, STAT5 examined (see FIG. 3C).

K562 cells = assay: CellTiter 96 AQueous One cell proliferation assay with JAK I, control cell line; type: cell-based; settings: control cell line K562, seventy hours, up to 2 micrograms/ml
Protocol: as §2

Row | Compound | growth and survival [1] | growth and survival [2] | apoptosis as measured by annexin V staining (CMK cells [3]) | cell proliferation (CMK cells [4]) | viability (CMK cells [4]) | phosphorylation of STAT5 (STAT5) | growth and viability (K562 cells)
1 | C[C@@H]1CCN(C(=O)CC#N)C[C@@H]1N(C)c1ncnc2[nH]ccc12 [CP-690,550] | selectively inhibited the growth and survival | not in control cells | – | – | – | – | –
2 | CC(C)(C)c1nc2c3cc[nH]c(=O)c3c3cc(F)ccc3c2[nH]1 [JAK I] | – | – | increase in apoptosis | inhibition of cell proliferation | significant decrease in viability | inhibited phosphorylation | no significant effect
